We go through nine molecules from publication PMC6222377, “Design, Synthesis, and Evaluation of Amphiphilic Cyclic and Linear Peptides Composed of Hydrophobic and Positively-Charged Amino Acids as Antibacterial Agents” (Molecules : A Journal of Synthetic Chemistry and Natural …, 2018).

Values after ≈ are worked out from the molar mass of the structure shown. Where a SMILES comes first, the peptide text is derived from it. [ ]: non-standard residue; d: D form.

The subject of test [1] is E. coli (ATCC 25922). Kind of test: microbe, parasite or virus in culture. The format is cell-based, Escherichia coli. The procedure:
(§1) To evaluate the antibacterial activity of all the synthesized peptides, the minimum inhibitory concentration (MIC) was determined using the micro broth dilution method (Table 1), as per the Clinical Laboratory Standards Institute (CLSI). The MIC is a quantitative measurement of the minimum concentration of a compound required to inhibit visible bacterial growth. MIC values for all 20 peptides were measured against E. coli (ATCC 25922) and MRSA (Los Angeles County clone (LAC)) (Table 1). These two bacterial strains represent Gram-negative and Gram-positive pathogens. MRSA is one of the most challenging Gram-positive bacteria that leads to a life-threatening infection, while E. coli is a Gram-negative bacteria that has the ability to use gene mutations and multidrug efflux pumps that can result in multidrug resistance.
(§2) Two bacterial strains, methicillin-resistant Staphylococcus aureus (LAC) and Escherichia coli (ATCC 25922) were used for the evaluation of the antibacterial activities of the peptides. […] MRSA and E. coli were inoculated into Mueller Hinton (MH) broth (5 mL) at 37 °C. After shaking in an orbital shaker (175 rpm) overnight, the cultured suspension was diluted using normal saline (5 mL). […] An amount of 40 μL of the McFarland solution was then added to 5980 μL of MH media to afford 1/150 dilution. […] Minimal inhibitory concentrations (MIC) values were obtained using the broth micro dilution assay. In brief, first, the peptides and controls (200 μL) were added to the first column of the 96 well plate. Second, 2-fold serial dilutions of the compound were accomplished by adding media (100 μL) to other wells. After the serial dilution, the bacterial solution (100 μL) was added to all the wells. Finally, the microtiter plates were incubated statically at 37 °C overnight. MIC values were obtained by observing the minimal concentration at which bacterial growth was not visible. All the determinations were carried out in triplicate.

The test system of test [2] is MRSA (Los Angeles County clone (LAC)). Kind of test: microbe, parasite or virus in culture. The format is cell-based, methicillin-resistant Staphylococcus aureus. To be noted: for MIC MRSA (LAC): Los Angeles County clone (LAC); for reduction of antibacterial activity compared with [R4W4]: comparison of MIC values with lead compound [R4W4]. As for the experimental part:
as §1, §2

In test [1] (Escherichia coli, ATCC25922, broth microdilution, Mueller Hinton broth, 37 °C overnight, visible growth, triplicate), `C[C@@H](O)[C@H]1C(=O)N2C(C(=O)O)=C(S[C@@H]3CN[C@H](C(=O)N(C)C)C3)[C@H](C)[C@H]12` [Meropenem, reference compound] had an MIC of 0.25 µg/mL (≈ 0.652 µM).

On to `N=C(N)NCCC[C@H](NC(=O)[C@H](CCCNC(=N)N)NC(=O)[C@H](CCCNC(=N)N)NC(=O)[C@@H](N)CCCNC(=N)N)C(=O)N[C@@H](Cc1c[nH]c2ccccc12)C(=O)N[C@@H](Cc1c[nH]c2ccccc12)C(=O)N[C@@H](Cc1c[nH]c2ccccc12)C(=O)N[C@@H](Cc1c[nH]c2ccccc12)C(=O)N[C@@H](Cc1c[nH]c2ccccc12)C(=O)O` [R4W5 (18)5], for which, in test [2], the “MIC MRSA (LAC)” value was 16 µg/mL (≈ 10.2 µM). Moreover, the “MIC E. coli (ATCC 25922)” value in test [1] is 32 µg/mL (≈ 20.3 µM).

With `CN[C@H](CC(C)C)C(=O)N[C@H]1C(=O)N[C@@H](CC(N)=O)C(=O)N[C@H]2C(=O)N[C@H]3C(=O)N[C@H](C(=O)N[C@H](C(=O)O)c4cc(O)cc(O)c4-c4cc3ccc4O)[C@H](O)c3ccc(c(Cl)c3)Oc3cc2cc(c3O[C@@H]2O[C@H](CO)[C@@H](O)[C@H](O)[C@H]2O[C@H]2C[C@](C)(N)[C@H](O)[C@H](C)O2)Oc2ccc(cc2Cl)[C@H]1O` [Vancomycin, reference compound], in test [2] (Staphylococcus aureus, MRSA, read-out: MIC MRSA (LAC)), the MIC was determined as 1 µg/mL (≈ 0.69 µM).

Turning to `C[C@@H]1NC(=O)[C@H](C)NC(=O)[C@H](C)NC(=O)[C@H](CCCNC(=N)N)NC(=O)[C@H](CCCNC(=N)N)NC(=O)[C@H](CCCNC(=N)N)NC(=O)[C@H](CCCNC(=N)N)NC(=O)[C@H](C)NC1=O` [[A4R4] (10)] (cyclo(AAAARRRR)), the “MIC MRSA (LAC)” value in test [2] was more than 128 µg/mL. Also, in test [1], the “MIC E. coli (ATCC 25922)” value was more than 128 µg/mL.

For the molecule `N=C(N)NCCC[C@H]1NC(=O)[C@H](Cc2c[nH]c3ccccc23)NC(=O)[C@H](Cc2c[nH]c3ccccc23)NC(=O)[C@H](Cc2c[nH]c3ccccc23)NC(=O)[C@H](Cc2c[nH]c3ccccc23)NC(=O)[C@@H](CCCNC(=N)N)NC(=O)[C@@H](CCCNC(=N)N)NC(=O)[C@@H](CCCNC(=N)N)NC1=O` [[DR4W4] (14)] (cyclo([dR][dR][dR][dR]WWWW)), in test [2], the “MIC MRSA (LAC)” value came out at 8 µg/mL (≈ 5.84 µM) and the “reduction of antibacterial activity compared with [R4W4]” value was “two-fold”. The “MIC E. coli (ATCC 25922)” value in test [1] amounted to 16 µg/mL (≈ 11.7 µM).

Consider `O=C(O)CC[C@@H]1NC(=O)[C@H](CCC(=O)O)NC(=O)[C@H](CCC(=O)O)NC(=O)[C@H](Cc2c[nH]c3ccccc23)NC(=O)[C@H](Cc2c[nH]c3ccccc23)NC(=O)[C@H](Cc2c[nH]c3ccccc23)NC(=O)[C@H](Cc2c[nH]c3ccccc23)NC(=O)[C@H](CCC(=O)O)NC1=O` [[E4W4] (16)] (cyclo(EEEEWWWW)), for which the “MIC MRSA (LAC)” value in test [2] was more than 128 µg/mL. The “antibacterial activity (in words)” value in test [2] (text summary of MIC results) is “abolished the activity completely”. Moreover, the “MIC E. coli (ATCC 25922)” value in test [1] was more than 128 µg/mL.

In the case of `N=C(N)NCCC[C@@H]1NC(=O)[C@H](CCCNC(=N)N)NC(=O)[C@H](CCCNC(=N)N)NC(=O)[C@H](Cc2ccccc2)NC(=O)[C@H](Cc2ccccc2)NC(=O)[C@H](Cc2ccccc2)NC(=O)[C@H](Cc2ccccc2)NC(=O)[C@H](CCCNC(=N)N)NC1=O` [[F4R4] (9)] (cyclo(RRRRFFFF)), the “MIC MRSA (LAC)” value in test [2] is more than 128 µg/mL. For the same molecule, in test [1], the “MIC E. coli (ATCC 25922)” value was more than 128 µg/mL.

In the case of `CC[C@H](C)[C@@H]1NC(=O)[C@H](CCCNC(=N)N)NC(=O)[C@H](CCCNC(=N)N)NC(=O)[C@H](CCCNC(=N)N)NC(=O)[C@H](CCCNC(=N)N)NC(=O)[C@H]([C@@H](C)CC)NC(=O)[C@H]([C@@H](C)CC)NC(=O)[C@H]([C@@H](C)CC)NC1=O` [[I4R4] (11)] (cyclo(IIIIRRRR)), the “MIC MRSA (LAC)” value in test [2] was more than 128 µg/mL. In addition, in test [1], the “MIC E. coli (ATCC 25922)” value was more than 128 µg/mL.

In the case of `NCCCC[C@@H]1NC(=O)[C@H](CCCCN)NC(=O)[C@H](CCCCN)NC(=O)[C@H](Cc2c[nH]c3ccccc23)NC(=O)[C@H](Cc2c[nH]c3ccccc23)NC(=O)[C@H](Cc2c[nH]c3ccccc23)NC(=O)[C@H](Cc2c[nH]c3ccccc23)NC(=O)[C@H](CCCCN)NC1=O` [[K4W4] (15)] (cyclo(KKKKWWWW)), in test [2], the “MIC MRSA (LAC)” value worked out at 8 µg/mL (≈ 6.36 µM) and the “reduction of antibacterial activity compared with [R4W4]” value was “two-fold”. Besides, in test [1], the “MIC E. coli (ATCC 25922)” value was 16 µg/mL (≈ 12.7 µM).
